Experimental findings from US8846928B2 (Portola Pharmaceuticals, Inc., priority 2010, dated 2014) are described below.

The test concerns the target T1, full length active recombinant SYK enzyme (Homo sapiens, UniProt P43405).
T1 construct: full length active recombinant SYK enzyme (Millipore, Calif.); purchased Millipore
In words: Inhibition of Syk tyrosine phosphorylation activity (LANCE TR-FRET kinase assay). Format: biochemical. The protocol: Inhibition of Syk Tyrosine Phosphorylation Activity
Potency of candidate molecules for inhibiting Syk tyrosine phosphorylation activity is assessed by measuring the ability of a test compound to inhibit Syk-mediated tyrosine phosphorylation of a Syk-specific substrate.
SYK tyrosine phosphorylation activity is measured using the LANCE™ Technology developed by Perkin Elmer Life and Analytical Sciences (Boston, Mass.). LANCE™ refers to homogeneous time resolved fluorometry applications using techniques such as time-resolved fluorescence resonance energy transfer assay (TR-FRET) (see generally for procedures in Perkin Elmer Application Note—How to Optimize a Tyrosine Kinase Assay Using Time Resolved Fluorescence-Based LANCE Detection, wwww.perkinelmer.com/lifesciences). The assay principle involves detection of a phosphorylated substrate using energy transfer from a phosphospecific europium-labeled antibody to streptavidin-allophycocyanin as an acceptor.
To test the ability of candidate molecules to inhibit SYK tyrosine phosphorylation activity, molecules are reconstituted in 30% DMSO and serially diluted 1:3 with the final dilution containing DMSO in the absence of the candidate molecule. The final DMSO concentration in the assay is 3%. Kinase assays are performed as a two part reaction. […] The second reaction involves termination of the kinase reaction and the simultaneous addition of the detection reagents—europium-labeled anti-phosphotyrosine reagent (Eu-W1024-PY100, Perkin Elmer, Boston, Mass.) and Streptavidin-Allophycocyanin detection reagent (SA-APC, Prozyme, Calif.). The kinase reaction is performed in a black U-bottom 96-well microtitre plate. The final reaction volume is 50 μL and contains a final concentration of 1 nM active SYK enzyme, 550 nM SYK-substrate, and 100 μM ATP diluted in a buffer containing 50 mM Tris pH 7.5, 5 mM MgCl2, and 1 mM DTT. The reaction is allowed to proceed for 1 hour at room temperature. The quench buffer contains 100 mM Tris pH 7.5, 300 mM NaCl2, 20 mM EDTA, 0.02% Brij35, and 0.5% BSA. The detection reagents are added to the reaction mixture at the following dilutions-1:500 for Eu-W1024-PY100 and 1:250 for SA-APC. The kinase reaction is terminated by the addition of 50 μL quench buffer containing the detection reagents. The detection is allowed to proceed for 1 hr at room temperature. Detection of the phosphorylated substrate in the absence and presence of inhibitors is measured in the TR-FRET instrument, Analyst HT (Molecular Probes, Sunnyvale, Calif.) and the condition for measurements are set up using CriterionHost Release 2.0 (Molecular Probes, Sunnyvale, Calif.). The settings used are a follows: excitation 360 nm, emission 665-7.5 nm, beam splitter 350 nm 50/50, flash 100 pulses, delay 60 us, integration 400 us, z-height 2 mm. […] IC50s were derived by non-linear regression analysis. […]
(In general: In TR-FRET formats the signal depends on donor and acceptor labels being close together.)
In general, IC50 refers to the concentration that inhibits the measured activity by half. Regarding `NC(=O)c1cc(F)c(N[C@@H]2CCCC[C@@H]2N)nc1Nc1ccc2nccn2c1` [Example 61, 6-((1R,2S)-2-aminocyclohexylamino)-5-fluoro-2-(imidazo[1,2-a]pyridin-6-ylamino)nicotinamide], the IC50 lay within 1 to 10 nM.
For `NC(=O)c1cc(F)c(N[C@@H]2CCCC[C@@H]2N)nc1Nc1ccn2ccnc2c1` [Example 62, 6-((1R,2S)-2-aminocyclohexylamino)-5-fluoro-2-(imidazo[1,2-a]pyridin-7-ylamino)nicotinamide] the value was 1 to 10 nM; for `Cn1ccc2cc(Nc3nc(N[C@@H]4CCCC[C@@H]4N)c(F)cc3C(N)=O)ccc21` [Example 63, 6-((1R,2S)-2-aminocyclohexylamino)-5-fluoro-2-(1-methyl-1H-indol-5-ylamino)nicotinamide], 1 to 10 nM; for `Cn1ccc2c(Nc3nc(N[C@@H]4CCCC[C@@H]4N)c(F)cc3C(N)=O)cccc21` [Example 64, 6-((1R,2S)-2-aminocyclohexylamino)-5-fluoro-2-(1-methyl-1H-indol-4-ylamino)nicotinamide], less than 1 nM.
`Cn1cc2c(Nc3nc(N[C@@H]4CCCC[C@@H]4N)c(F)cc3C(N)=O)cccc2n1` [Example 65, 6-((1R,2S)-2-aminocyclohexylamino)-5-fluoro-2-(2-methyl-2H-indazol-4-ylamino)nicotinamide]: the IC50 is 100 to 1000 nM.
Regarding `NC(=O)c1cc(F)c(N[C@@H]2CCCC[C@@H]2N)nc1Nc1ccc2ncccc2c1` [Example 66, 6-((1R,2S)-2-aminocyclohexylamino)-5-fluoro-2-(quinolin-6-ylamino)nicotinamide], the IC50 was less than 1 nM.
For `NC(=O)c1cc(F)c(N[C@@H]2CCCC[C@@H]2N)nc1Nc1ccc2cnccc2c1` [Example 67, 6-((1R,2S)-2-aminocyclohexylamino)-5-fluoro-2-(isoquinolin-6-ylamino)nicotinamide] the value was less than 1 nM; for `NC(=O)c1cc(F)c(N[C@@H]2CCCC[C@@H]2N)nc1Nc1ccc2ccncc2c1` [Example 68, 6-((1R,2S)-2-aminocyclohexylamino)-5-fluoro-2-(isoquinolin-7-ylamino)nicotinamide], 1 to 10 nM; for `NC(=O)c1cc(F)c(N[C@@H]2CCCC[C@@H]2N)nc1Nc1ccc2cccnc2c1` [Example 69, 6-((1R,2S)-2-aminocyclohexylamino)-5-fluoro-2-(quinolin-7-ylamino)nicotinamide], 1 to 10 nM.
The figure for `NC(=O)c1cc(F)c(N[C@@H]2CCCC[C@@H]2N)nc1Nc1cnc2ccccc2c1` [Example 70, 6-((1R,2S)-2-aminocyclohexylamino)-5-fluoro-2-(quinolin-3-ylamino)nicotinamide] is 1 to 10 nM; for `NC(=O)c1cc(F)c(N[C@@H]2CCCC[C@@H]2N)nc1Nc1cncc2ccccc12` [Example 71, 6-((1R,2S)-2-aminocyclohexylamino)-5-fluoro-2-(isoquinolin-4-ylamino)nicotinamide] it is 1 to 10 nM; for `NC(=O)c1cc(F)c(N[C@@H]2CCCC[C@@H]2N)nc1Nc1ccnc2ccccc12` [Example 72] it is 1 to 10 nM.
`NC(=O)c1cc(F)c(N[C@@H]2CCCC[C@@H]2N)nc1Nc1cccc2ncccc12` [Example 73, 6-((1R,2S)-2-aminocyclohexylamino)-5-fluoro-2-(quinolin-5-ylamino)nicotinamide]: the IC50 lay within 1 to 10 nM.
The figure for `NC(=O)c1cc(F)c(N[C@@H]2CCCC[C@@H]2N)nc1Nc1cccc2cnccc12` [Example 74, 6-((1R,2S)-2-aminocyclohexylamino)-5-fluoro-2-(isoquinolin-5-ylamino)nicotinamide] is 1 to 10 nM; for `NC(=O)c1cc(F)c(N[C@@H]2CCCC[C@@H]2N)nc1Nc1cccc2ccncc12` [Example 75, 6-((1R,2S)-2-aminocyclohexylamino)-5-fluoro-2-(isoquinolin-8-ylamino)nicotinamide] it is 100 to 1000 nM; for `NC(=O)c1cc(F)c(N[C@@H]2CCCC[C@@H]2N)nc1Nc1ccc2nccnc2c1` [Example 76, 6-((1R,2S)-2-aminocyclohexylamino)-5-fluoro-2-(quinoxalin-6-ylamino)nicotinamide] it is 1 to 10 nM.
For the molecule `NC(=O)c1cc(F)c(N[C@@H]2CCCC[C@@H]2N)nc1Nc1cnc2nccnc2c1` [Example 77, 6-((1R,2S)-2-aminocyclohexylamino)-5-fluoro-2-(pyrido[3,2-b]pyrazin-7-ylamino)nicotinamide], the IC50 lay within 10 to 100 nM.
As to `NC(=O)c1cc(F)c(N[C@@H]2CCCC[C@@H]2N)nc1Nc1ccc2c(c1)OCCO2` [Example 78], the IC50 was 1 to 10 nM.
The figure for `COCCOc1cccc(Nc2nc(N[C@@H]3CCCC[C@@H]3N)c(F)cc2C(N)=O)c1` [Example 79, 6-((1R,2S)-2-aminocyclohexylamino)-5-fluoro-2-(3-(2-methoxyethoxy)phenylamino)nicotinamide] is 1 to 10 nM.
Consider `NC(=O)c1cc(F)c(N[C@@H]2CCCC[C@@H]2N)nc1Nc1cccc(OC2CCOCC2)c1` [Example 80, 6-((1R,2S)-2-aminocyclohexylamino)-5-fluoro-2-(3-(tetrahydro-2H-pyran-4-yloxy)phenylamino)nicotinamide], for which the IC50 was in the range of 1 to 10 nM.
Regarding `NC(=O)c1cc(F)c(N[C@@H]2CCCC[C@@H]2N)nc1Nc1ccc(OC2CCOCC2)cc1` [Example 81, 6-((1R,2S)-2-aminocyclohexylamino)-5-fluoro-2-(4-(tetrahydro-2H-pyran-4-yloxy)phenylamino)nicotinamide], the IC50 was 10 to 100 nM.
In the case of `Cc1cc(Nc2nc(N[C@@H]3CCCC[C@@H]3N)c(F)cc2C(N)=O)sn1` [Example 82, 6-((1R,2S)-2-aminocyclohexylamino)-5-fluoro-2-(3-methylisothiazol-5-ylamino)nicotinamide], the IC50 lay in the range of 1 to 10 nM.
Turning to `Cn1cc(Nc2nc(N[C@@H]3CCCC[C@@H]3N)c(F)cc2C(N)=O)cn1` [Example 83, 6-((1R,2S)-2-aminocyclohexylamino)-5-fluoro-2-(1-methyl-1H-pyrazol-4-ylamino)nicotinamide], the IC50 was in the range of 10 to 100 nM.
The figure for `NC(=O)c1cc(F)c(N[C@@H]2CCCC[C@@H]2N)nc1Nc1ccnnc1` [Example 84] is 100 to 1000 nM; for `Cc1cc(Nc2nc(N[C@@H]3CCCC[C@@H]3N)c(F)cc2C(N)=O)ccn1` [Example 85, 6-((1R,2S)-2-aminocyclohexylamino)-5-fluoro-2-(2-methylpyridin-4-ylamino)nicotinamide] it is 1 to 10 nM.
For `Cc1cc(Nc2nc(N[C@@H]3CCCC[C@@H]3N)c(F)cc2C(N)=O)cc(C)n1` [Example 86, 6-((1R,2S)-2-aminocyclohexylamino)-2-(2,6-dimethylpyridin-4-ylamino)-5-fluoronicotinamide] the value was 1 to 10 nM; for `Cc1cncc(Nc2nc(N[C@@H]3CCCC[C@@H]3N)c(F)cc2C(N)=O)c1` [Example 87, 6-((1R,2S)-2-aminocyclohexylamino)-5-fluoro-2-(5-methylpyridin-3-ylamino)nicotinamide], 1 to 10 nM; for `COc1cncc(Nc2nc(N[C@@H]3CCCC[C@@H]3N)c(F)cc2C(N)=O)c1` [Example 88, 6-((1R,2S)-2-aminocyclohexylamino)-5-fluoro-2-(5-methoxypyridin-3-ylamino)nicotinamide], 1 to 10 nM.
For `NC(=O)c1cc(F)c(N[C@@H]2CCCC[C@@H]2N)nc1Nc1cncc(F)c1` [Example 89, 6-((1R,2S)-2-aminocyclohexylamino)-5-fluoro-2-(5-fluoropyridin-3-ylamino)nicotinamide] the value was 1 to 10 nM; for `COC[C@H](CN)Nc1nc(Nc2cccc(-n3nccn3)c2)c(C(N)=O)cc1F` [Example 91, (S)-2-(3-(2H-1,2,3-triazol-2-yl)phenylamino)-6-(1-amino-3-methoxypropan-2-ylamino)-5-fluoronicotinamide], 1 to 10 nM; for `CC[C@H](CN)Nc1nc(Nc2cccc(-c3ncccn3)c2)c(C(N)=O)cc1F` [Example 92, (R)-6-(1-aminobutan-2-ylamino)-5-fluoro-2-(3-(pyrimidin-2-yl)phenylamino)nicotinamide], 10 to 100 nM.
